Laboratory results reported in US20050261273A1, “Substituted urea and carbamate, phenacyl-2-hydroxy-3-diaminoalkane, and benzamide-2-hydroxy-3-diaminoalkane aspartyl-protease inhibitors” (priority 2004, published 2005).

Legend:
[1] = biological target: cathepsin D (catD) versus beta-secretase (BACE) (Homo sapiens, UniProt P07339); assay: CatD/BACE selectivity (ratio of IC50 values); format: biochemical; settings: each value is an average of four experimental runs; multiple values = more than one experiment
Experimental: (§1) Investigation of potential beta-secretase inhibitors produced compounds with increased selectivity for beta-secretase over other aspartyl proteases such as cathepsin D (catD), cathepsin E (catE), Human Immunodeficiency Viral (HIV) protease, and renin. Selectivity was calculated as a ratio of inhibition (IC50) values in which the inhibition of beta-secretase was compared to the inhibition of other aspartyl proteases.
The compounds of formula (I) can be selective for beta-secretase versus catD.
(§2) In the following examples, each value is an average of four experimental runs and multiple values for one compoundd indicate that more than one experiment was conducted.

[2] = biological target: T1, cathepsin E (catE) versus beta-secretase (BACE) (Homo sapiens, UniProt P14091); assay: CatE/BACE selectivity (ratio of IC50 values); format: biochemical; settings: each value is an average of four experimental runs; multiple values = more than one experiment
T1 sequence (P14091 54-396): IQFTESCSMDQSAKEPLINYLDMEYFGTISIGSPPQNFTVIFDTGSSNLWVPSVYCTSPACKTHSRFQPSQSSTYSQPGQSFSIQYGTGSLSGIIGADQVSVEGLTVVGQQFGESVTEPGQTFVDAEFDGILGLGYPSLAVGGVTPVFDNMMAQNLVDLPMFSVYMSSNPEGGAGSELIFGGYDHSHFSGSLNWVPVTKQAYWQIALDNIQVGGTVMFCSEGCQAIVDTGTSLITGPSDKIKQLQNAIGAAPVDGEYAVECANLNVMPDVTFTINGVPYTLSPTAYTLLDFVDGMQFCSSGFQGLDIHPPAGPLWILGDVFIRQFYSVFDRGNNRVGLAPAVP
Experimental: as §1
The compounds of formula (I) can be selective for beta-secretase versus catE. […] Selectivity is reported as the ratio of IC50(catE):IC50(BACE).
as §2

Sequence of cathepsin D (catD) versus beta-secretase (BACE) (P07339 65-412): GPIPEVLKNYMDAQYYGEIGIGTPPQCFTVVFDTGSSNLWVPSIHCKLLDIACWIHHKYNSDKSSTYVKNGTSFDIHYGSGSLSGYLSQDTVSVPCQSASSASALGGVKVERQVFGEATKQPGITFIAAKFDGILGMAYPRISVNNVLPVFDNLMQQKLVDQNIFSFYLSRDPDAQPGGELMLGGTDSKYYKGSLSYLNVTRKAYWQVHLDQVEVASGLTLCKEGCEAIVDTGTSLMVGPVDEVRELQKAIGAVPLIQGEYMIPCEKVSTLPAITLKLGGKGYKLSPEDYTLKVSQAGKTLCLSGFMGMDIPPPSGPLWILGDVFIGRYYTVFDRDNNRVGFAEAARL

Structure (SMILES)	IC50 CatD/IC50 BACE [1]	IC50 CatE/IC50 BACE [2]
CN(c1cccc(C(=O)NC(Cc2cc(F)cc(F)c2)C(O)CNC2(c3cccc(C(C)(C)C)c3)CCCCC2)c1)S(C)(=O)=O (stereo not drawn) [Example 325A-2]	3.1	–
CC(C)(C)c1cccc(C2(NCC(O)C(Cc3cc(F)cc(F)c3)NC(=O)c3csc(NS(C)(=O)=O)n3)CCCCC2)c1 (stereo not drawn) [Example 325B-5]	–	1.2
CC(C)(C)c1cccc(C2(NCC(O)C(Cc3cc(F)cc(F)c3)NC(=O)CCCC(=O)O)CCCCC2)c1 (stereo not drawn) [Example 325B-3]	–	3.4
CC(C)(CCC(=O)NC(Cc1cc(F)cc(F)c1)C(O)CNC1(c2cccc(C(C)(C)C)c2)CCCCC1)C(=O)O (stereo not drawn) [Example 325A-5]	1.7	–
CC(C)(C)c1cccc(C2(NCC(O)C(Cc3cc(F)cc(F)c3)NC(=O)COCC(=O)O)CCCCC2)c1 (stereo not drawn) [Example 325A-3]	2.0	–
CC(C)(C)c1cccc(C2(NCC(O)C(Cc3cc(F)cc(F)c3)NC(=O)c3csc(NS(C)(=O)=O)n3)CCCCC2)c1 (stereo not drawn) [Example 325A-6]	5.0	–
CC(C)(CCC(=O)NC(Cc1cc(F)cc(F)c1)C(O)CNC1(c2cccc(C(C)(C)C)c2)CCCCC1)C(=O)O (stereo not drawn) [Example 325B-1]	–	8.3
CC(C)(C)c1cccc(C2(NCC(O)C(Cc3cc(F)cc(F)c3)NC(=O)COCC(=O)O)CCCCC2)c1 (stereo not drawn) [Example 325B-4]	–	3.2
CC(C)(C)c1cccc(C2(NCC(O)C(Cc3cc(F)cc(F)c3)NC(=O)CCCC(=O)O)CCCCC2)c1 (stereo not drawn) [Example 325A-4]	1.9	–
